These are literature values, as cited in US8222270B2 (Medicis Pharmaceutical Corporation, priority 2008, dated 2012).

Structures are written as SMILES.

The subject of this data set is actinic keratoses. Particulars: cited from earlier work.

Turning to `O=c1[nH]cc(F)c(=O)[nH]1` [Formulation 5-FU, 5-fluorouracil], for the setting “12-month follow-up”, the “Sustained clearance of the total treatment field, patients” value is reported as 33% and the “Sustained clearance rate of initially cleared individual lesions” value is 54%. Further, where the note is “in vivo”, the Histological clearance rate is listed as 67% and the “Initial clinical clearance, patients” value is 96%.
